Results: the CheMixHub ionic liquid set

Experiment: xn = mol fraction of the nth substance listed

CCCC[n+]1cccc(C)c1.O=S(=O)([N-]S(=O)(=O)C(F)(F)F)C(F)(F)F + CCO
298.15 K, 101.3 kPa
Details	electrical conductivity [S/m]
x2 = 0	0.273
x2 = 0.4364	0.642
x2 = 0.6597	0.93
x2 = 0.8246	1.07

CCCC[n+]1ccn(C)c1.O=S(=O)([N-]S(=O)(=O)C(F)(F)F)C(F)(F)F + CCO
Details	electrical conductivity [S/m]	viscosity [mPa·s]
293 K, 100 kPa, x1 = 0.5784	–	20.7
293.3 K, 100 kPa, x1 = 0.4606	–	13.8
293.3 K, 100 kPa, x1 = 0.747	–	32.1
293.61 K, 100 kPa, x1 = 0.2688	–	6.37
293.61 K, 100 kPa, x1 = 1	–	61.8
293.91 K, 100 kPa, x1 = 0.2129	–	5.12
293.91 K, 100 kPa, x1 = 0.4606	–	13.5
293.91 K, 100 kPa, x1 = 0.6609	–	24.2
294.21 K, 100 kPa, x1 = 0.4215	–	12.22
294.21 K, 100 kPa, x1 = 0.6609	–	23.9
294.21 K, 100 kPa, x1 = 1	–	60.2
294.52 K, 100 kPa, x1 = 0.747	–	30.8
294.52 K, 100 kPa, x1 = 0.8264	–	38.5
294.52 K, 100 kPa, x1 = 1	–	59.4
294.82 K, 100 kPa, x1 = 0.4215	–	11.98
294.82 K, 100 kPa, x1 = 1	–	58.6
295.12 K, 100 kPa, x1 = 0.4215	–	11.87
295.12 K, 100 kPa, x1 = 0.747	–	30.1
295.42 K, 100 kPa, x1 = 0.2129	–	4.94
295.42 K, 100 kPa, x1 = 0.2688	–	6.11
295.42 K, 100 kPa, x1 = 0.4606	–	12.94
295.73 K, 100 kPa, x1 = 0.8264	–	36.7
296.64 K, 100 kPa, x1 = 0.2688	–	5.94
296.64 K, 100 kPa, x1 = 0.4606	–	12.48
296.64 K, 100 kPa, x1 = 1	–	54.1
296.94 K, 100 kPa, x1 = 0.4606	–	12.36
296.94 K, 100 kPa, x1 = 0.747	–	28.4
297.24 K, 100 kPa, x1 = 0.2688	–	5.85
297.24 K, 100 kPa, x1 = 0.4215	–	11.09
297.24 K, 100 kPa, x1 = 0.5784	–	18.17
297.24 K, 100 kPa, x1 = 0.747	–	28.1
297.55 K, 100 kPa, x1 = 0.8264	–	34.1
297.85 K, 100 kPa, x1 = 1	–	51.4
298 K, 100 kPa, x1 = 0.02	0.415	–
298 K, 100 kPa, x1 = 0.03	0.5634	–
298 K, 100 kPa, x1 = 0.05	–	1.663
298 K, 100 kPa, x1 = 0.06	0.8844	–
298 K, 100 kPa, x1 = 0.07	0.958	–
298 K, 100 kPa, x1 = 0.0999	–	2.413
298 K, 100 kPa, x1 = 0.1	1.118	–
298 K, 100 kPa, x1 = 0.1999	–	4.331
298 K, 100 kPa, x1 = 0.2	1.28	–
298 K, 100 kPa, x1 = 0.2993	–	6.629
298 K, 100 kPa, x1 = 0.3	1.216	–
298 K, 100 kPa, x1 = 0.397	–	9.56
298 K, 100 kPa, x1 = 0.4	1.09	–
298 K, 100 kPa, x1 = 0.4836	–	12.74
298 K, 100 kPa, x1 = 0.5	0.9534	–
298 K, 100 kPa, x1 = 0.6	0.8239	–
298 K, 100 kPa, x1 = 0.6978	–	23.61
298 K, 100 kPa, x1 = 0.7	0.6839	–
298 K, 100 kPa, x1 = 0.8	0.575	–
298 K, 100 kPa, x1 = 0.8001	–	30.86
298 K, 100 kPa, x1 = 0.8987	–	38.32
298 K, 100 kPa, x1 = 0.9	0.4819	–
298 K, 100 kPa, x1 = 1	–	49.7
298.15 K, 100 kPa, x1 = 0.2129	–	4.64
298.15 K, 100 kPa, x1 = 0.2688	–	5.73
298.15 K, 101 kPa, x2 = 0.1174	–	38.5
298.45 K, 100 kPa, x1 = 0.6609	–	21
298.45 K, 100 kPa, x1 = 0.747	–	27
298.76 K, 100 kPa, x1 = 0.4215	–	10.58
298.76 K, 100 kPa, x1 = 0.8264	–	32.6
299.06 K, 100 kPa, x1 = 0.2129	–	4.55
299.06 K, 100 kPa, x1 = 0.5784	–	17.18
299.06 K, 100 kPa, x1 = 0.6609	–	20.6
299.67 K, 100 kPa, x1 = 0.4606	–	11.41
299.97 K, 100 kPa, x1 = 0.2129	–	4.45
299.97 K, 100 kPa, x1 = 0.5784	–	16.72
300.27 K, 100 kPa, x1 = 0.2129	–	4.42
300.27 K, 100 kPa, x1 = 0.4215	–	10.11
300.27 K, 100 kPa, x1 = 0.747	–	25.4
300.27 K, 100 kPa, x1 = 0.8264	–	30.7
300.58 K, 100 kPa, x1 = 0.4215	–	10.02
300.88 K, 100 kPa, x1 = 0.2688	–	5.37
300.88 K, 100 kPa, x1 = 0.4215	–	9.92
301.18 K, 100 kPa, x1 = 0.2688	–	5.34
301.48 K, 100 kPa, x1 = 0.2129	–	4.3
302.7 K, 100 kPa, x1 = 0.2129	–	4.18
302.7 K, 100 kPa, x1 = 0.2688	–	5.15
302.7 K, 100 kPa, x1 = 0.747	–	23.5
302.7 K, 100 kPa, x1 = 0.8264	–	28.1
303 K, 100 kPa, x1 = 0.4606	–	10.38
303 K, 100 kPa, x1 = 0.747	–	23.2
303.3 K, 100 kPa, x1 = 0.2688	–	5.08
303.91 K, 100 kPa, x1 = 0.8264	–	26.8
304.52 K, 100 kPa, x1 = 0.4606	–	9.95
304.52 K, 100 kPa, x1 = 0.5784	–	14.59
304.52 K, 100 kPa, x1 = 1	–	39.3
304.82 K, 100 kPa, x1 = 0.2688	–	4.9
304.82 K, 100 kPa, x1 = 0.4215	–	8.85
304.82 K, 100 kPa, x1 = 0.747	–	21.9
305.12 K, 100 kPa, x1 = 1	–	38.4
306.03 K, 100 kPa, x1 = 0.2688	–	4.76
306.33 K, 100 kPa, x1 = 0.5784	–	13.83
306.33 K, 100 kPa, x1 = 0.8264	–	24.6
306.64 K, 100 kPa, x1 = 0.2688	–	4.69
306.64 K, 100 kPa, x1 = 0.6609	–	16.39
306.94 K, 100 kPa, x1 = 0.2129	–	3.8
307.24 K, 100 kPa, x1 = 0.4215	–	8.27
307.24 K, 100 kPa, x1 = 0.4606	–	9.23
308.15 K, 100 kPa, x1 = 0.2688	–	4.53
308.15 K, 100 kPa, x1 = 0.6609	–	15.67
308.45 K, 100 kPa, x1 = 0.2129	–	3.67
308.45 K, 100 kPa, x1 = 0.6609	–	15.53
308.45 K, 100 kPa, x1 = 0.747	–	19.5
308.76 K, 100 kPa, x1 = 0.4215	–	7.93
308.76 K, 100 kPa, x1 = 0.5784	–	12.88
308.76 K, 100 kPa, x1 = 0.747	–	19.3
309.06 K, 100 kPa, x1 = 0.2688	–	4.44
309.67 K, 100 kPa, x1 = 0.4215	–	7.73
309.67 K, 100 kPa, x1 = 1	–	32.4
309.97 K, 100 kPa, x1 = 0.4606	–	8.58
309.97 K, 100 kPa, x1 = 0.747	–	18.6
310.58 K, 100 kPa, x1 = 0.747	–	18.3
310.88 K, 100 kPa, x1 = 0.2129	–	3.47
310.88 K, 100 kPa, x1 = 0.5784	–	12.12
310.88 K, 100 kPa, x1 = 0.8264	–	20.9
311.18 K, 100 kPa, x1 = 0.4606	–	8.31
311.48 K, 100 kPa, x1 = 0.2129	–	3.42
311.79 K, 100 kPa, x1 = 0.4606	–	8.18
311.79 K, 100 kPa, x1 = 0.5784	–	11.8
311.79 K, 100 kPa, x1 = 0.747	–	17.58
311.79 K, 100 kPa, x1 = 0.8264	–	20.3
312.09 K, 100 kPa, x1 = 0.2688	–	4.13
312.09 K, 100 kPa, x1 = 0.6609	–	13.95
312.39 K, 100 kPa, x1 = 0.2688	–	4.1
312.39 K, 100 kPa, x1 = 0.4606	–	8.05
312.7 K, 100 kPa, x1 = 0.2688	–	4.07
313 K, 100 kPa, x1 = 0.747	–	16.94
313 K, 100 kPa, x1 = 1	–	28.8
313.3 K, 100 kPa, x1 = 0.4215	–	7.02
313.61 K, 100 kPa, x1 = 0.8264	–	19
313.91 K, 100 kPa, x1 = 0.6609	–	13.23
313.91 K, 100 kPa, x1 = 0.747	–	16.47
314.21 K, 100 kPa, x1 = 0.2129	–	3.21
314.21 K, 100 kPa, x1 = 0.2688	–	3.93
314.21 K, 100 kPa, x1 = 0.747	–	16.32
314.52 K, 100 kPa, x1 = 0.5784	–	10.92
314.52 K, 100 kPa, x1 = 0.747	–	16.17
314.82 K, 100 kPa, x1 = 0.6609	–	12.88
315.12 K, 100 kPa, x1 = 0.8264	–	18.1
315.42 K, 100 kPa, x1 = 0.2688	–	3.82
315.42 K, 100 kPa, x1 = 0.6609	–	12.66
315.73 K, 100 kPa, x1 = 0.4215	–	6.59
315.73 K, 100 kPa, x1 = 0.5784	–	10.55
315.73 K, 100 kPa, x1 = 0.6609	–	12.55
316.03 K, 100 kPa, x1 = 0.2688	–	3.77
316.33 K, 100 kPa, x1 = 0.4606	–	7.27
316.64 K, 100 kPa, x1 = 0.4215	–	6.44
316.64 K, 100 kPa, x1 = 0.5784	–	10.29
316.64 K, 100 kPa, x1 = 1	–	25.4
316.94 K, 100 kPa, x1 = 0.6609	–	12.12
316.94 K, 100 kPa, x1 = 0.8264	–	17
317.24 K, 100 kPa, x1 = 0.6609	–	12.01
317.55 K, 100 kPa, x1 = 0.2688	–	3.64
317.55 K, 100 kPa, x1 = 0.4215	–	6.29
317.55 K, 100 kPa, x1 = 0.5784	–	10.03
317.85 K, 100 kPa, x1 = 0.4215	–	6.24
317.85 K, 100 kPa, x1 = 0.6609	–	11.8
318.15 K, 100 kPa, x1 = 0.2688	–	3.58
318.15 K, 100 kPa, x1 = 0.4606	–	6.94
318.76 K, 100 kPa, x1 = 0.4606	–	6.83
318.76 K, 100 kPa, x1 = 0.5784	–	9.69
318.76 K, 100 kPa, x1 = 1	–	23.7
319.06 K, 100 kPa, x1 = 0.2129	–	2.87
319.67 K, 100 kPa, x1 = 0.4215	–	5.97
319.67 K, 100 kPa, x1 = 0.747	–	13.83
319.97 K, 100 kPa, x1 = 0.4606	–	6.63
319.97 K, 100 kPa, x1 = 0.5784	–	9.37
320.27 K, 100 kPa, x1 = 0.5784	–	9.29
320.27 K, 100 kPa, x1 = 0.747	–	13.58
320.27 K, 100 kPa, x1 = 0.8264	–	15.24
320.58 K, 100 kPa, x1 = 0.4215	–	5.83
321.18 K, 100 kPa, x1 = 0.4606	–	6.43
321.18 K, 100 kPa, x1 = 0.6609	–	10.73
321.48 K, 100 kPa, x1 = 0.747	–	13.09
321.79 K, 100 kPa, x1 = 0.2688	–	3.29
321.79 K, 100 kPa, x1 = 0.4606	–	6.33
322.09 K, 100 kPa, x1 = 0.2129	–	2.67
322.09 K, 100 kPa, x1 = 0.4215	–	5.62
322.09 K, 100 kPa, x1 = 1	–	21.3
322.39 K, 100 kPa, x1 = 0.747	–	12.74
322.7 K, 100 kPa, x1 = 0.747	–	12.63
323 K, 100 kPa, x1 = 0.4606	–	6.15

CCCC[n+]1ccn(C)c1.[O-][Cl+3]([O-])([O-])[O-] + CCO
viscosity [mPa·s], 101 kPa
Details	x2 = 0.592	x2 = 0.637	x2 = 0.79	x2 = 0.86
303.15 K	–	8.7	4	3.6
313.15 K	7.4	6.7	–	–
